Data from patent publication US20260083698A1, “Synergistic Stimulation of Mucociliary Clearance to Treat Mucus Obstruction in Cystic Fibrosis and Other Muco-Obstructive Disorders” (The Board of Trustees of the Leland Stanford Junior …, priority 2022, published 2026).

Tests used:
[1] = tested on: pig tracheal mucosa; assay: Short circuit current (Isc) and conductance, Ussing chamber, pig; conditions: WT pigs; 30 min single agonist then 30 min combined
Excerpt: (§1) FIG. 4. Combined agonists inhibit sodium absorption and stimulate anion secretion by surface epithelia. (A) Cartoon of two electrogenic, ion transport pathways across airway apical epithelium: anion secretion increases surface fluid, Na+ absorption decreases surface fluid. The two pathways have opposite effects on fluid depth, but additive effects on short circuit current (Isc) because of their opposite valence and transport directions. (B) Raw trace of Isc across pig tracheal epithelium using Chart 4 software. After reaching a stable, unstimulated Isc (here, >2 h post-mounting), 10 μM forskolin, 0.3 μM carbachol, 10 μM benzamil, 20 μM benzopyrimido-pyrrolo-oxazinedione (BPO-27) and 200 μM niflumic acid were sequentially added at times shown. (C, D) Pig tracheal mucosa: averaged Δ Isc plots over time in response to (C) forskolin alone followed by forskolin+carbachol and (D) reversed order of agonist addition. (E & F) Ferret tracheal mucosa: averaged A Isc plots with same protocol as for pigs. Pig traces (C, D) are based on 10-12 experiments with tissues from 6 to 7 pigs. Ferret traces (E, F) are from 7 experiments with tissues from 5 ferrets.
Combined agonists stimulate epithelial surface anion secretion and inhibit Na^+ absorption. The surface epithelia also modify ASL. FIG. 4A is a cartoon of the main ion flows controlling ASL depth: anion-mediated fluid secretion increases, and Na^+-mediated fluid absorption decreases ASL depth. It was hypothesized that the combined agonists increase ASL depth and thus MCCV by stimulating secretion and inhibiting absorption (see also FIG. 6). […] With no counterbalancing absorption ASL depth is predicted to increase (dotted gold line in FIG. 6A) unless MCCV increases.
Inhibiting Na+ absorption would increase net fluid accumulation on the surface. […]
(§2) Electrophysiology. […] Total tissue conductance was calculated by applying Ohm's law to the Isc deflection resulting from a 1 mV pulse across the tissues every 20 s during the experiment. […]

[2] = tested on: ferret tracheal mucosa; assay: Short circuit current (Isc), Ussing chamber, ferret; conditions: WT ferrets; 30 min single agonist then 30 min combined
Excerpt: as §1, with “ferrets. […]” for “ferrets.”
as §2

[3] = tested on: WT ferret tracheas; conditions: WT ferrets, obtained previously (16); cited from earlier work

C[N+](C)(C)CCOC(N)=O [carbachol]
ΔIsc, summary plots [1]: decreased directly or after a transient increase | ΔIsc, summary plots [2]: decreased directly or after a transient increase | MCCV [3]: 8.24±0.82 mm/min
